Values of other authors as cited in patent US20230285554A1, “COMBINED MEDICATION FOR TREATING SOFT TISSUE SARCOMA” (CHIA TAI TIANQING PHARMACEUTICAL GROUP CO., LTD., priority 2020, published 2023).

Test system: STS
Settings: first-line chemotherapy

Row | Compound | efficacy in words
1 | COc1cccc2c1C(=O)c1c(O)c3c(c(O)c1C2=O)C[C@@](O)(C(=O)CO)C[C@@H]3O[C@H]1C[C@H](N)[C@H](O)[C@H](C)O1 [adriamycin] | best efficacy
2 | O=P1(NCCCl)OCCCN1CCCl (centres unmarked) [ifosfamide] | best efficacy
